Test system in the first series: not listed separately
As to the kind of experiment: HPLC logP. The class given is physicochemical.
Settings: not given
For orientation: chromatographic logP means lipophilicity estimated from chromatographic retention. High values mean higher lipophilicity, low ones lower lipophilicity. Compound `CON=C(C1=NOCCO1)c1ccccc1Oc1nccc(OC(CF)CF)n1` [Example 1, (5,6-dihydro-[1,4,2]dioxazin-3-yl)-{2-[4-(2-fluoro-1-fluoromethyl-ethoxy)-pyrimidin-2-yloxy]-phenyl}-methanone O-methyl oxime] showed a chromatographic logP of 2.2.
For the compound `CON=C(C1=NOCCO1)c1ccccc1Oc1nccc(Cl)n1` [II-1, [2-(4-chloro-pyrimidin-2-yloxy)-phenyl]-(5,6-dihydro-[1,4,2]dioxazin-3-yl)-methanone O-methyl oxime], the chromatographic logP was determined as 2.
`CON=C(C1=NOCCO1)c1ccccc1Oc1nccc(OCC(Cl)(Cl)Cl)n1` [Example 2, (5,6-dihydro-[1,4,2]dioxazin-3-yl)-{2-[4-(2,2,2-trichloroethoxy)-pyrimidine-2-yloxy]-phenyl}-methanone O-methyl oxime] showed a chromatographic logP of 3.1.

Staying with this series, now noted: Table 1.
`CCCCOc1ccnc(Oc2ccccc2C(=NOC)C2=NOCCO2)n1` [Example 9] displayed a chromatographic logP of 3.
In turn, `CON=C(C1=NOCCO1)c1ccccc1Oc1nccc(OCC(F)(F)C(F)(F)F)n1` [Example 8] yielded a chromatographic logP of 3.1.
For `CON=C(C1=NOCCO1)c1ccccc1Oc1nccc(SCc2ccccc2)n1` [Example 120], the chromatographic logP worked out at 3.14.
Take `CON=C(C1=NOCCO1)c1ccccc1Oc1nccc(OCc2ccccc2)n1` [Example 12]: the chromatographic logP was determined as 2.9.
The compound `CON=C(C1=NOCCO1)c1ccccc1Oc1nccc(OCc2ccc(C)c(Cl)c2)n1` [Example 86] registered a chromatographic logP of 3.7.
The same measure, in the same setting: with `C/C=C\COc1ccnc(Oc2ccccc2C(=NOC)C2=NOCCO2)n1` [Example 166] the figure was 2.7.
`CON=C(C1=NOCCO1)c1ccccc1Oc1nccc(OCCc2ccc(Cl)cc2)n1` [Example 26] showed a chromatographic logP of 3.5.
Turning to `CCCCCCCCCCCCCCCCOc1ccnc(Oc2ccccc2C(=NOC)C2=NOCCO2)n1` [Example 163], the chromatographic logP is more than 7.4.
For the compound `CON=C(C1=NOCCO1)c1ccccc1Oc1nccc(OCc2ccccc2F)n1` [Example 15], the chromatographic logP came to 2.9.
Same read-out and setting: under `CON=C(C1=NOCCO1)c1ccccc1Oc1nccc(OCc2ccc(Cl)cc2)n1` [Example 22] stands 3.3.
For the compound `CON=C(C1=NOCCO1)c1ccccc1Oc1nccc(OCC2C(C=C(C)C)C2(C)C)n1` (stereo not drawn) [Example 162], the chromatographic logP is 4.3.
Compound `CCCCCCCCCOc1ccnc(Oc2ccccc2C(=NOC)C2=NOCCO2)n1` [Example 35] showed a chromatographic logP of 5.1.
Take `CON=C(C1=NOCCO1)c1ccccc1Oc1nccc(N(C)Cc2ccccc2)n1` [Example 152]: the chromatographic logP came to 1.84.
Same read-out and setting: under `CON=C(C1=NOCCO1)c1ccccc1Oc1nccc(OCC2(C)CC2(Cl)Cl)n1` (stereo not drawn) [Example 172] stands 3.3; under `CON=C(C1=NOCCO1)c1ccccc1Oc1nccc(OCc2ccc(SC)cc2)n1` [Example 168], 2.1; under `CON=C(C1=NOCCO1)c1ccccc1Oc1nccc(OCC(Br)(Br)Br)n1` [Example 11], 3.2.
Consider `CON=C(C1=NOCCO1)c1ccccc1Oc1nccc(NC(C)c2ccccc2)n1` (stereo not drawn) [Example 171], for which the chromatographic logP is 1.8.
With `C=C(Br)COc1ccnc(Oc2ccccc2C(=NOC)C2=NOCCO2)n1` [Example 169], the chromatographic logP amounted to 2.7.
On to `CON=C(C1=NOCCO1)c1ccccc1Oc1nccc(OCc2cccc(F)c2)n1` [Example 19], for which the chromatographic logP was found to be 3.
On the same count and under the same terms, under `CON=C(C1=NOCCO1)c1ccccc1Oc1nccc(OCc2ccc(OC)cc2)n1` [Example 156] stands 2.8.
The compound `CON=C(C1=NOCCO1)c1ccccc1Oc1nccc(OC(C)C(F)(F)F)n1` (stereo not drawn) [Example 4] yielded a chromatographic logP of 2.9.
The same measure, in the same setting: with `CON=C(C1=NOCCO1)c1ccccc1Oc1nccc(OCCCc2ccccc2)n1` [Example 101] the figure was 3.4.
`CON=C(C1=NOCCO1)c1ccccc1Oc1nccc(OCC2CCCC2)n1` [Example 58] returned a chromatographic logP of 3.4.
In the case of `CON=C(C1=NOCCO1)c1ccccc1Oc1nccc(OCc2ccc(C)cc2)n1` [Example 16], the chromatographic logP came out at 3.2.
The compound `CCCCCCCCOc1ccnc(Oc2ccccc2C(=NOC)C2=NOCCO2)n1` [Example 23] gave a chromatographic logP of 4.7.
Turning to `CON=C(C1=NOCCO1)c1ccccc1Oc1nccc(OCC(Cl)Cl)n1` [Example 10], the chromatographic logP came out at 2.7.
`CON=C(C1=NOCCO1)c1ccccc1Oc1nccc(NCCc2ccccc2)n1` [Example 139] came in with a chromatographic logP of 2.4.
`CON=C(C1=NOCCO1)c1ccccc1Oc1nccc(OCCc2ccccc2)n1` [Example 25] returned a chromatographic logP of 3.3.
`CON=C(C1=NOCCO1)c1ccccc1Oc1nccc(OCCC(F)(F)F)n1` [Example 158] registered a chromatographic logP of 2.6.
Compound `CON=C(C1=NOCCO1)c1ccccc1Oc1nccc(OC(C)c2ccccc2)n1` (stereo not drawn) [Example 21] registered a chromatographic logP of 3.1.
Still for that read-out and setting: with `CON=C(C1=NOCCO1)c1ccccc1Oc1nccc(OC(C)C)n1` [Example 7] the figure was 2.5; with `CON=C(C1=NOCCO1)c1ccccc1Oc1nccc(OCCc2ccccc2F)n1` [Example 17], 3.2.
Compound `CCCCCCCCCCOc1ccnc(Oc2ccccc2C(=NOC)C2=NOCCO2)n1` [Example 36] returned a chromatographic logP of 5.6.
Turning to `CON=C(C1=NOCCO1)c1ccccc1Oc1nccc(OCCc2ccccc2C(F)(F)F)n1` [Example 20], the chromatographic logP was found to be 3.6.
`C/C=C/C=C/COc1ccnc(Oc2ccccc2C(=NOC)C2=NOCCO2)n1` [Example 165] came in with a chromatographic logP of 3.2.
For `CON=C(C1=NOCCO1)c1ccccc1Oc1nccc(SC)n1` [Example 108], the chromatographic logP stood at 2.2.
For `CON=C(C1=NOCCO1)c1ccccc1Oc1nccc(OCCF)n1` [Example 38], the chromatographic logP worked out at 2.
`CON=C(C1=NOCCO1)c1ccccc1Oc1nccc(OC2CCCCC2)n1` [Example 27] yielded a chromatographic logP of 3.3.
Compound `C=CCOc1ccnc(Oc2ccccc2C(=NOC)C2=NOCCO2)n1` [Example 48] returned a chromatographic logP of 2.4.
As for `CCC(C)Oc1ccnc(Oc2ccccc2C(=NOC)C2=NOCCO2)n1` (stereo not drawn) [Example 29], the chromatographic logP stood at 2.9.
The same measure, in the same setting: with `CON=C(C1=NOCCO1)c1ccccc1Oc1nccc(OCCCCCc2ccccc2)n1` [Example 159] the figure was 4.1; with `CON=C(C1=NOCCO1)c1ccccc1Oc1nccc(OCC=Cc2ccccc2)n1` [Example 161], 3.3; with `CON=C(C1=NOCCO1)c1ccccc1Oc1nccc(OC(C(F)(F)F)C(F)(F)F)n1` [Example 42], 3.3.
Regarding `CCCCCCCOc1ccnc(Oc2ccccc2C(=NOC)C2=NOCCO2)n1` [Example 18], the chromatographic logP worked out at 4.2.
The same measure, in the same setting: under `C#CCOc1ccnc(Oc2ccccc2C(=NOC)C2=NOCCO2)n1` [Example 160] stands 2.1; under `CON=C(C1=NOCCO1)c1ccccc1Oc1nccc(OCCc2ccc(OC)cc2)n1` [Example 98], 3; under `CON=C(C1=NOCCO1)c1ccccc1Oc1nccc(OCC2CC2)n1` [Example 59], 2.5.
`CON=C(C1=NOCCO1)c1ccccc1Oc1nccc(OC(C)c2ccccc2Cl)n1` (stereo not drawn) [Example 24] showed a chromatographic logP of 3.4.
Consider `CCCCCOc1ccnc(Oc2ccccc2C(=NOC)C2=NOCCO2)n1` [Example 14], for which the chromatographic logP is 3.3.
Compound `C=CC(C)Oc1ccnc(Oc2ccccc2C(=NOC)C2=NOCCO2)n1` (stereo not drawn) [Example 164] registered a chromatographic logP of 2.7.
On the same count and under the same terms, under `CON=C(C1=NOCCO1)c1ccccc1Oc1nccc(OC2CCCC2)n1` [Example 54] stands 3; under `CON=C(C1=NOCCO1)c1ccccc1Oc1nccc(OCC(F)(F)C(F)F)n1` [Example 157], 2.6; under `CON=C(C1=NOCCO1)c1ccccc1Oc1nccc(NCc2ccccc2)n1` [Example 136], 1.6.

The test system of the next series is Plasmopara viticola. Nature of the series: Example D: Plasmopara test (grapevine)/protective. The class given is in vivo. Particulars: Plasmopara viticola, 144 h, protective, 6 days after inoculation, vs untreated control, read-out: Efficacy in %. On the procedure:
Plasmopara test (grapevine)/protective Solvent: 47 parts by weight of acetone Emulsifier: 3 parts by weight of alkylaryl polyglycol ether To produce a suitable preparation of active compound, 1 part by weight of active compound is mixed with the stated amount of solvent and emulsifier, and the concentrate is diluted with water to the desired concentration. To test for protective activity, young plants are sprayed with the preparation of active compound at the stated application rate. […]
Take `CCCCOc1ccnc(Oc2ccccc2C(=NOC)C2=NOCCO2)n1` [Example 9]: the pest or weed control at 100 g/ha was not above 100%.
Take `CON=C(C1=NOCCO1)c1ccccc1Oc1nccc(OCC(F)(F)C(F)(F)F)n1` [Example 8]: the pest or weed control at 100 g/ha is not above 100%.
As to `CON=C(C1=NOCCO1)c1ccccc1Oc1nccc(OCc2ccccc2)n1` [Example 12], the pest or weed control at 100 g/ha was not above 100%.
On to `CON=C(C1=NOCCO1)c1ccccc1Oc1nccc(OCC(Br)(Br)Br)n1` [Example 11], for which the pest or weed control at 100 g/ha was not above 100%.
Take `CON=C(C1=NOCCO1)c1ccccc1Oc1nccc(OC(CF)CF)n1` [Example 1, (5,6-dihydro-[1,4,2]dioxazin-3-yl)-{2-[4-(2-fluoro-1-fluoromethyl-ethoxy)-pyrimidin-2-yloxy]-phenyl}-methanone O-methyl oxime]: the pest or weed control at 100 g/ha was not above 100%.
Take `CON=C(C1=NOCCO1)c1ccccc1Oc1nccc(OCC(Cl)Cl)n1` [Example 10]: the pest or weed control at 100 g/ha is not above 100%.
Same read-out and setting: under `CON=C(C1=NOCCO1)c1ccccc1Oc1nccc(OC(C)C)n1` [Example 7] stands not above 100%.
Take `CON=C(C1=NOCCO1)c1ccccc1Oc1nccc(OCC(Cl)(Cl)Cl)n1` [Example 2, (5,6-dihydro-[1,4,2]dioxazin-3-yl)-{2-[4-(2,2,2-trichloroethoxy)-pyrimidine-2-yloxy]-phenyl}-methanone O-methyl oxime]: the pest or weed control at 100 g/ha is not above 100%.
On the same count and under the same terms, under `CCCCCOc1ccnc(Oc2ccccc2C(=NOC)C2=NOCCO2)n1` [Example 14] stands not above 100%.

Staying with this series, now noted: protective, 100 g/ha, 6 days after inoculation, vs untreated control.
Turning to `CON=C(C1=NOCCO1)c1ccccc1Oc1nccc(OCc2ccccc2)n1` [drawing 38], the Efficacy in % is given as 100%.
On the same count and under the same terms, under `CCCCCOc1ccnc(Oc2ccccc2C(=NOC)C2=NOCCO2)n1` [drawing 40] stands 99%; under `CON=C(C1=NOCCO1)c1ccccc1Oc1nccc(OCC(Br)(Br)Br)n1` [drawing 37], 100%.
`CCCCCCOc1ccnc(Oc2ccccc2C(=NOC)C2=NOCCO2)n1` [drawing 39] displayed an Efficacy in % of 100%.

The subject of another series is Sphaerotheca fuliginea. As to the kind of experiment: Example E: Sphaerotheca test (cucumber)/protective. It counts as in vivo. The settings on record: protective, 100 g/ha, 10 days after inoculation, vs untreated control. On the procedure:
Sphaerotheca test (cucumber)/protective Solvent: 47 parts by weight of acetone Emulsifier: 3 parts by weight of alkylaryl polyglycol ether To produce a suitable preparation of active compound, 1 part by weight of active compound is mixed with the stated amount of solvent and emulsifier, and the concentrate is diluted with water to the desired concentration. To test for protective activity, young plants are sprayed with the preparation of active compound at the stated application rate. After the spray coating is dried on, the plants are inoculated with an aqueous spore suspension of Sphaerotheca fuliginea.
In the case of `CON=C(C1=NOCCO1)c1ccccc1Oc1nccc(OCC(F)(F)C(F)(F)F)n1` [Example 8], the Efficacy in % entry is reported as “more than 90%”.
With `CON=C(C1=NOCCO1)c1ccccc1Oc1nccc(OCC(F)(F)C(F)(F)F)n1` [drawing 43], the Efficacy in % was 92%.
Still for that read-out and setting: under `CON=C(C1=NOCCO1)c1ccccc1Oc1nccc(OCC(Cl)(Cl)Cl)n1` [Example 2, (5,6-dihydro-[1,4,2]dioxazin-3-yl)-{2-[4-(2,2,2-trichloroethoxy)-pyrimidine-2-yloxy]-phenyl}-methanone O-methyl oxime] stands “more than 90%”.
